US20160287497A1, “USE AS A DEODORANT AGENT OF A SALIFIED SALICYLIC ACID DERIVATIVE, ALONE OR IN A MIXTURE” (L'OREAL, priority 2013, published 2016)

Columns and labels:
Corynebacterium xerosis = test: Effect on Corynebacterium xerosis: growth inhibition in microplate, MIC; assay type: cell-based
Procedure: • Test principle: contacting of decreasing concentrations of compounds under evaluation with an identical inoculum of microorganisms in a culture medium suitable for the growth of C. xerosis.
The dilutions of the compounds under evaluation are performed in agar at 1:1000, making it possible, for dispersible compounds under evaluation, to do away with the use of a solvent which could introduce bias in the evaluation of the compounds. The concentration range chosen was: 1%, 0.3%, 0.03% and 0.003%. Each concentration was tested in triplicate.
To ensure that the potential inhibitory activity was not associated with a pH effect, the pH of the culture medium was verified at the end of incubation.
The compound mixtures M0 and M2 were evaluated based on this protocol, along with n-octanoyl-5-salicylic acid (comparison).

[1] = Anti-odor effect: ex-vivo olfactory evaluation test on incubated sweat
Procedure: The deodorant activity was evaluated in the ex-vivo olfactory evaluation test, on incubated sweat.
Each compound under evaluation was introduced at a rate of 0.3 mg into 1 mL of sweat. The compounds under evaluation were weighed in 25 or 30 mL pill bottles and 1 mL from a pool of fresh sweat was then added. The pill bottles were hermetically sealed and placed in an incubator at 35° C. for 24 hours. After being removed from the incubator, the pill bottles were opened and allowed to cool to ambient temperature.
A panel of sixteen people performed an olfactory analysis of each pill bottle. The efficacy of each compound evaluated was determined in comparison to a negative control (incubated sweat alone).

CCCCCCCC(=O)c1ccc(O)c(C(=O)O)c1 [N-octanoyl-5-salicylic acid, n-octanoyl-5-salicylic acid]
MIC C. xerosis (Corynebacterium xerosis; incubation 24 to 48 hours, Optical Density 620 nm vs growth control, range tested 1%, 0.3%, 0.03%, 0.003%, triplicate): <0.003% | growth of C. xerosis (result in words) (Corynebacterium xerosis; same protocol as Table 1): inhibit the growth of C. xerosis | % Variation incubated sweat intensity ([1]; 0.3 mg in 1 mL of sweat, 35° C. for 24 hours, panel of sixteen people, vs incubated sweat alone): −57% | unpleasant odor of incubated sweat (result in words) ([1]; same protocol as Table 2): reduce the unpleasant odor of incubated sweat
